Data taken from US7829296B2, “Kinesin polypeptides, polynucleotides encoding same and compositions and methods of using same” (Ramot at Tel-Aviv University Ltd., priority 2005, dated 2010).

What was measured:
ERK1/2 in MBA-15 cells [1] = test: Estrogen signaling, ERK1/2 pathway: Western blot for pERK1/2 on whole cell lysates; type: cell-based; details: FIG. 16A; for 17βE2-induced increase of pERK1/2 after pretreatment: then 10^−8M 17β-estrogen five minutes
Description: Western blot analysis and Immunoprecipitation: Cells were harvested from cultures, washed twice with ice-cold PBS and collected in presence of protease inhibitors (Phenylmethylsulfonyl fluoride PMSF, 1 mM; 1-Chloro-3-tosylamido-4-phenyl-2-butanone, TPCK, 10 μg/ml; Aprotinin, 10 μg/ml (Sigma, USA) and phosphatase inhibitor cocktails I and II (Sigma, USA). Samples were spun down at 1500 rpm for 4 minutes and pellets were reconstituted in lyses buffer (50 mM Tris pH 7.5, 150 mM NaCl, 1% NP-40, and protease and phosphatase inhibitors, as above). Following a 20 minute incubation at 4° C., samples were centrifuged at 16,000 g for 5 minutes.
(§1) For Western blot, the membranes were blocked with 5% BSA in TBST (50 mM Tris, pH-7.5, 150 mM NaCl, 0.1% Tween-20, Sigma, USA) for 1 hour at RT or overnight and than incubated with anti-MS-KIF18A. The membranes were washed with TBST and incubated with goat anti-rabbit or goat anti-mouse conjugated to biotin (Dako, Denmark) for 40 minutes at RT and Extravidin-Peroxidase (Sigma, USA) for detection with chemiluminescent substrate (Pierce, USA).
(§2) Estrogen signaling, ERK1/2 pathway: MBA-15 cells were maintained in medium supplemented with 3% charcoal striped FCS for 48 hours prior to the start of the experiment. On the day of the experiment, the cells were pretreated with 25 μM MAPK inhibitor, PD98059 (Calbiochem, USA) and an estrogen antagonist ICI 182,780 10^−6M (Tocris, USA) for 45 minutes. 10^−8M 17β-estrogen (Sigma, USA) was added for five minutes. Cell lysates were used for immunoprecipitation and analyzed by Western blot.
(§3) Immunoprecipitation, Western blot, SDS-PADE gel: All experiments were performed as described in Example 1. Primary antibodies included anti-MS-KIF18A, anti-ER antibodies (Upstate Biotechnologies, USA) or SRA-1010 (Stressgen, Canada), anti-ERK1/2, pERK1/2 (Sigma, USA) or anti-His-tag (Santa Cruz Biotechnologies, USA). For detection a secondary antibody conjugated to biotin-extravidine-peroxidase and chemiluminescent substrate was used (Pierce, USA).

ERK1/2 in MBA-15 cells [2] = test: pERK1/2 in anti-MS-KIF18A immunoprecipitates (MS-KIF18A-ERα complex), Western blot; type: cell-based; details: for ERK activation in anti-MS-KIF18A immunoprecipitate after pretreatment: then 17β-estrogen
Description: (§4) For immunoprecipitation (IP), anti-MS-KIF18A and protein-A sepharose beads (Sigma, USA) were added to lysates and samples were incubated overnight at 4° C. Immunocomplexes were precipitated at 16,000 g for 1 minute and washed 4 times with lyses buffer. The washed beads were re-suspended in Lamelli sample buffer and boiled for 3 minutes. The proteins were separated on 8% SDS-PAGE gel for 2 hours and transferred to nitrocellulose for 1.5 hours.
as §1, §2, §3

ERα 66 kDa = molecular target: T1, ERα 66 kDa (Homo sapiens, UniProt P03372); test: Co-immunoprecipitation of co-transfected His-MS-KIF18A and ERα 66 kDa in COS-7 cells; type: binding; details: COS-7 cells co-transfected with His-MS-KIF18A and ERα 66 kDa, FIGS. 14A-B
T1 construct: expressed in transfected cells; host or cells: COS-7
T1 sequence (P03372 1-595): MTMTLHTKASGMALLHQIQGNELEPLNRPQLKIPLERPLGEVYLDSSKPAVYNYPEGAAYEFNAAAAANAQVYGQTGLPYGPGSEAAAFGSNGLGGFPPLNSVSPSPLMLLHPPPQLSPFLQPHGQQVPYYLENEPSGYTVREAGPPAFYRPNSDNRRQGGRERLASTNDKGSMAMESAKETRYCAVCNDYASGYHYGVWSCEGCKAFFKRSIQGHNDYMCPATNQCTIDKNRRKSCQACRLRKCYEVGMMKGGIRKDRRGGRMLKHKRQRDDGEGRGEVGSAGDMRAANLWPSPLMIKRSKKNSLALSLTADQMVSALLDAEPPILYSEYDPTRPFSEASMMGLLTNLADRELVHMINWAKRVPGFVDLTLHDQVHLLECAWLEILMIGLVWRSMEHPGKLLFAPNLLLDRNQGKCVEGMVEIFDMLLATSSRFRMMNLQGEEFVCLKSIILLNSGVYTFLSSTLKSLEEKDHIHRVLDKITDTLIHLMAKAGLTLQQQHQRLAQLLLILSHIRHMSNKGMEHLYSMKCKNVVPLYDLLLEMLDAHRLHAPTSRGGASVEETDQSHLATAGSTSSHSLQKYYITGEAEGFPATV
T1 sequence (Q8NI77 1-898 I735V partner): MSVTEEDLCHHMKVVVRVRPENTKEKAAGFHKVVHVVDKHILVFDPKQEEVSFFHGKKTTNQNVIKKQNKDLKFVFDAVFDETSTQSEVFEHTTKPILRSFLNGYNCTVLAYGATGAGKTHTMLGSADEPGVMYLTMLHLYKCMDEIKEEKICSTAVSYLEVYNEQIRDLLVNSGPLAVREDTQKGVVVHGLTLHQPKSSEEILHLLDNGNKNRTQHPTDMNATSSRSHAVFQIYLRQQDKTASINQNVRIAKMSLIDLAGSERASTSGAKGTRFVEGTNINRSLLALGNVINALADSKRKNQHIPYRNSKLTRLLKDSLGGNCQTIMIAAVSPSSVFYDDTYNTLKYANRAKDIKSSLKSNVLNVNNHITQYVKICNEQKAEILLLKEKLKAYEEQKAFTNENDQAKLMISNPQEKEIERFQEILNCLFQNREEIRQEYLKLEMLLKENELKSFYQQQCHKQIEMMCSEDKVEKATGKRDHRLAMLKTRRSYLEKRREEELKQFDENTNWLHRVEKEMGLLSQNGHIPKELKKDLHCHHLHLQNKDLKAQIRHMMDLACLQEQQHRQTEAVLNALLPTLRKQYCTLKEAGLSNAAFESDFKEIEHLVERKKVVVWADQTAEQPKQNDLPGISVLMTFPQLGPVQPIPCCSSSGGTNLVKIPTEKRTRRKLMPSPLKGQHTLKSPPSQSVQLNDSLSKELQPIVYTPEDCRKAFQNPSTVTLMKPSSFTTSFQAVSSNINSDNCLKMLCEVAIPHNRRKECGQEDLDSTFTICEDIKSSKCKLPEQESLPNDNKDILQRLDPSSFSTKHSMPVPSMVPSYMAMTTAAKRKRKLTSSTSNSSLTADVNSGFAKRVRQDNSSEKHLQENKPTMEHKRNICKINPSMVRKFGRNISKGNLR
Description: as §4, §1
as §3, with “(Pierce, USA). […]” for “(Pierce, USA).”

ERα = test: Co-immunoprecipitation of endogenous MS-KIF18A and ERα in MBA-15 cells; type: binding; details: MBA-15 cell lysates, antibodies directed against MS-KIF18A, FIG. 15
Description: as §4, §1, §3

COc1cccc(-c2cc(=O)c3ccccc3o2)c1N [PD98059]
17βE2-induced increase of pERK1/2 after pretreatment (ERK1/2 in MBA-15 cells [1]; pretreated with 25 μM PD98059 for 45 minutes): inhibited
ERK activation in anti-MS-KIF18A immunoprecipitate after pretreatment (ERK1/2 in MBA-15 cells [2]; pretreated with 25 μM PD98059 45 minutes, FIG. 16D lane 2, FIG. 16E): reduced ERK activation

17β-estrogen [17βE2]
pERK1/2 following 17βE2 stimulation (ERK1/2 in MBA-15 cells [1]; 10^−8M 17β-estrogen for five minutes): increase
activated ERK in anti-MS-KIF18A immunoprecipitate following estrogen treatment (ERK1/2 in MBA-15 cells [2]; 10^−8M 17β-estrogen five minutes, FIG. 16D lane 4): increase in activated ERK

C[C@]12CC[C@@H]3c4ccc(O)cc4C[C@@H](CCCCCCCCC[S+]([O-])CCCC(F)(F)C(F)(F)F)[C@H]3[C@@H]1CC[C@@H]2O (some centres unmarked) [ICI 182,780]
17βE2-induced increase of pERK1/2 after pretreatment (ERK1/2 in MBA-15 cells [1]; pretreated with ICI 182,780 10^−6M for 45 minutes): inhibited
ERK activation in anti-MS-KIF18A immunoprecipitate after pretreatment (ERK1/2 in MBA-15 cells [2]; pretreated with ICI 182,780 10^−6M 45 minutes, FIG. 16D lane 3, FIG. 16E): reduced ERK activation

B1: His-MS-KIF18A: His-tagged MS-KIF18A expressed from pcDNA3.1-His-C-MS-KIF18A in COS-7 cells (protein)
chain: MSVTEEDLCHHMKVVVRVRPENTKEKAAGFHKVVHVVDKHILVFDPKQEEVSFFHGKKTTNQNVIKKQNKDLKFVFDAVFDETSTQSEVFEHTTKPILRSFLNGYNCTVLAYGATGAGKTHTMLGSADEPGVMYLTMLHLYKCMDEIKEEKICSTAVSYLEVYNEQIRDLLVNSGPLAVREDTQKGVVVHGLTLHQPKSSEEILHLLDNGNKNRTQHPTDMNATSSRSHAVFQIYLRQQDKTASINQNVRIAKMSLIDLAGSERASTSGAKGTRFVEGTNINRSLLALGNVINALADSKRKNQHIPYRNSKLTRLLKDSLGGNCQTIMIAAVSPSSVFYDDTYNTLKYANRAKDIKSSLKSNVLNVNNHITQYVKICNEQKAEILLLKEKLKAYEEQKAFTNENDQAKLMISNPQEKEIERFQEILNCLFQNREEIRQEYLKLEMLLKENELKSFYQQQCHKQIEMMCSEDKVEKATGKRDHRLAMLKTRRSYLEKRREEELKQFDENTNWLHRVEKEMGLLSQNGHIPKELKKDLHCHHLHLQNKDLKAQIRHMMDLACLQEQQHRQTEAVLNALLPTLRKQYCTLKEAGLSNAAFESDFKEIEHLVERKKVVVWADQTAEQPKQNDLPGISVLMTFPQLGPVQPIPCCSSSGGTNLVKIPTEKRTRRKLMPSPLKGQHTLKSPPSQSVQLNDSLSKELQPIVYTPEDCRKAFQNPSTVTLMKPSSFTTSFQAVSSNINSDNCLKMLCEVAIPHNRRKECGQEDLDSTFTICEDIKSSKCKLPEQESLPNDNKDILQRLDPSSFSTKHSMPVPSMVPSYMAMTTAAKRKRKLTSSTSNSSLTADVNSGFAKRVRQDNSSEKHLQENKPTMEHKRNICKINPSMVRKFGRNISKGNLR
modifications: left off: small tags and cut ends
notes: His-tagged MS-KIF18A expressed from pcDNA3.1-His-C-MS-KIF18A in COS-7 cells
interaction with ERα 66 kDa (pull-down by anti-MS-KIF18A and anti-His antibodies) (ERα 66 kDa): interaction

B2: MS-KIF18A: novel kinesin KIF18A polypeptide of 898 amino acids expressed in mesenchymal stem cells, SEQ ID NO: 2 (protein, listed as Homo sapiens)
chain: MSVTEEDLCHHMKVVVRVRPENTKEKAAGFHKVVHVVDKHILVFDPKQEEVSFFHGKKTTNQNVIKKQNKDLKFVFDAVFDETSTQSEVFEHTTKPILRSFLNGYNCTVLAYGATGAGKTHTMLGSADEPGVMYLTMLHLYKCMDEIKEEKICSTAVSYLEVYNEQIRDLLVNSGPLAVREDTQKGVVVHGLTLHQPKSSEEILHLLDNGNKNRTQHPTDMNATSSRSHAVFQIYLRQQDKTASINQNVRIAKMSLIDLAGSERASTSGAKGTRFVEGTNINRSLLALGNVINALADSKRKNQHIPYRNSKLTRLLKDSLGGNCQTIMIAAVSPSSVFYDDTYNTLKYANRAKDIKSSLKSNVLNVNNHITQYVKICNEQKAEILLLKEKLKAYEEQKAFTNENDQAKLMISNPQEKEIERFQEILNCLFQNREEIRQEYLKLEMLLKENELKSFYQQQCHKQIEMMCSEDKVEKATGKRDHRLAMLKTRRSYLEKRREEELKQFDENTNWLHRVEKEMGLLSQNGHIPKELKKDLHCHHLHLQNKDLKAQIRHMMDLACLQEQQHRQTEAVLNALLPTLRKQYCTLKEAGLSNAAFESDFKEIEHLVERKKVVVWADQTAEQPKQNDLPGISVLMTFPQLGPVQPIPCCSSSGGTNLVKIPTEKRTRRKLMPSPLKGQHTLKSPPSQSVQLNDSLSKELQPIVYTPEDCRKAFQNPSTVTLMKPSSFTTSFQAVSSNINSDNCLKMLCEVAIPHNRRKECGQEDLDSTFTICEDIKSSKCKLPEQESLPNDNKDILQRLDPSSFSTKHSMPVPSMVPSYMAMTTAAKRKRKLTSSTSNSSLTADVNSGFAKRVRQDNSSEKHLQENKPTMEHKRNICKINPSMVRKFGRNISKGNLR
association with endogenous ERα (co-immunoprecipitation) (ERα): confirmed the association
